From patent publication US9434711B2 (Janssen Pharmaceutica, NV, priority 2007, dated 2016)

Molecular target: canine TRPM8 (Canis lupus familiaris, UniProt Q1A7N1)
Experiment: In Vitro Canine TRPM8 Functional Assay (Ca2+ fluorescence, icilin activation)
Type: cell-based
Conditions: for IC50: HEK293 cells stably expressing canine TRPM8, icilin activation, eight-point dose-response, read-out: IC50; for inhibition at 0.2 µM / % Inh @ 0.2 (μM): compound at 0.2 μM, canine TRPM8, icilin activation; for inhibition at 0.2 µM: read-out: % Inh @ 0.2
Summary of the method: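 Readout is the intracellular Ca2+ fluorescence change, measured by FLIPR or FDSS, in HEK293 cells stably expressing canine TRPM8. Potency (EC50 or IC50) is fitted from eight concentrations averaged over quadruplicate wells.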

Sequence of canine TRPM8 (Q1A7N1 1-1104): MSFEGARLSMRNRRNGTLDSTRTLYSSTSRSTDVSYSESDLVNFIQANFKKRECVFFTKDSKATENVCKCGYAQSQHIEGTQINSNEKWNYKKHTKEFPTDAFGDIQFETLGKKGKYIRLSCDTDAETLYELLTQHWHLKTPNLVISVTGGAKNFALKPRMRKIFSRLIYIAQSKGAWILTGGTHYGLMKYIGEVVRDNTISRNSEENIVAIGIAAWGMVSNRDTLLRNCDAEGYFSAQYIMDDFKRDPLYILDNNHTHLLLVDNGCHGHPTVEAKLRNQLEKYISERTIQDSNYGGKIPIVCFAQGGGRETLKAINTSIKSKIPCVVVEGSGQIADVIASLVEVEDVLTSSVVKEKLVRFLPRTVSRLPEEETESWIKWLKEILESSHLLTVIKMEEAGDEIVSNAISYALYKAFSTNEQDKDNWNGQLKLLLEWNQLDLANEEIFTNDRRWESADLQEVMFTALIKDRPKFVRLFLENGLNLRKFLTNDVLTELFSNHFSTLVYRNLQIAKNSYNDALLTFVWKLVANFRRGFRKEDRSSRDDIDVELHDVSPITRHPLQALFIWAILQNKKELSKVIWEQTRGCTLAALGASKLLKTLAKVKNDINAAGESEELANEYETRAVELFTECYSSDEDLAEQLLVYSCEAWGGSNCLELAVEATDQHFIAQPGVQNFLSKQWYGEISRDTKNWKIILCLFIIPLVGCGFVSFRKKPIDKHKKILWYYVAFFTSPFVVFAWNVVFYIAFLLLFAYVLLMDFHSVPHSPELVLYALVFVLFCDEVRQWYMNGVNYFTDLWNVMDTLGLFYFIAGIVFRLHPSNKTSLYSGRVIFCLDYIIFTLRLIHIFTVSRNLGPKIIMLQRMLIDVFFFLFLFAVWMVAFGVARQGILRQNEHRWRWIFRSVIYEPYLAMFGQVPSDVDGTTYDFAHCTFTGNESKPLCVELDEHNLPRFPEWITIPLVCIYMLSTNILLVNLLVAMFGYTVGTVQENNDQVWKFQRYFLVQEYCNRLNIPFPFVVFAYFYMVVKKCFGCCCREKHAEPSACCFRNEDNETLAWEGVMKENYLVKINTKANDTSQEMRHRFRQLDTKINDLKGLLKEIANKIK

| Structure (SMILES) | IC50 | inhibition at 0.2 µM | % Inh @ 0.2 (μM) |
| --- | --- | --- | --- |
| Cc1c(N(CCC(F)(F)F)S(=O)(=O)c2ccccc2)sc2ccccc12 [Compound 615, N-(3-Methyl-benzo[b]thiophen-2-yl)-N-(3,3,3-trifluoro-propyl)-benzenesulfonamide] | 7.3 nM | 101% | – |
| Cc1c(N(CCCC(F)(F)F)S(=O)(=O)c2ccccc2)sc2ccccc12 [Compound 616, N-(3-Methyl-benzo[b]thiophen-2-yl)-N-(4,4,4-trifluoro-butyl)-benzenesulfonamide] | 12.8 nM | 101% | – |
| Cc1c(N(CCCCC(F)(F)F)S(=O)(=O)c2ccccc2)sc2ccccc12 [Compound 617, N-(3-Methyl-benzo[b]thiophen-2-yl)-N-(5,5,5-trifluoro-pentyl)-benzenesulfonamide] | 7.4 nM | 101% | – |
| CC1=C(N(CCC2CC2)S(=O)(=O)c2ccccc2)S(=O)(=O)c2ccccc21 [Compound 618, N-(2-Cyclopropyl-ethyl)-N-(3-methyl-1,1-dioxo-benzo[b]thiophen-2-yl)-benzenesulfonamide] | 10.4 nM | 101% | – |
| CC1=C(N(CCC(F)(F)F)S(=O)(=O)c2ccccc2)S(=O)(=O)c2ccccc21 [Compound 619, N-(3-Methyl-1,1-dioxo-benzo[b]thiophen-2-yl)-N-(3,3,3-trifluoro-propyl)-benzenesulfonamide] | 39.8 nM | 101% | – |
| CC1=C(N(CCCC(F)(F)F)S(=O)(=O)c2ccccc2)S(=O)(=O)c2ccccc21 [Compound 620, N-(3-Methyl-1,1-dioxo-benzo[b]thiophen-2-yl)-N-(4,4,4-trifluoro-butyl)-benzenesulfonamide] | 23.4 nM | 101% | – |
| CC1=C(N(CCCCC(F)(F)F)S(=O)(=O)c2ccccc2)S(=O)(=O)c2ccccc21 [Compound 621, N-(3-Methyl-1,1-dioxo-benzo[b]thiophen-2-yl)-N-(5,5,5-trifluoro-pentyl)-benzenesulfonamide] | 11 nM | 101% | – |
| CC1=C(N(Cc2ccc(F)c(C(F)(F)F)c2)S(=O)(=O)c2ccccc2)S(=O)(=O)c2ccccc21 [Compound 622, N-(4-Fluoro-3-trifluoromethyl-benzyl)-N-(3-methyl-1,1-dioxo-benzo[b]thiophen-2-yl)-benzenesulfonamide] | 31.3 nM | 89% | – |
| Cc1c(N(Cc2ccc(F)c(C(F)(F)F)c2)S(=O)(=O)c2ccc(C(=O)NS(C)(=O)=O)cc2)sc2ccccc12 [Compound 623, N-(3-Methyl-benzo[b]thiophen-2-yl)-N-(4-fluoro-3-trifluoromethyl-benzyl)-4-methanesulfonylaminocarbonyl-benzenesulfonamide] | 7 nM | 101% | – |
| O=S1NC(c2ccc(S(=O)(=O)N(CCC3CC3)c3sc4ccccc4c3Br)cc2)=NO1 (stereo not drawn) [Compound 624, N-(3-Bromo-benzo[b]thiophen-2-yl)-N-(cyclopropyl-ethyl)-4-(3H-[1,2,3,5]oxathiadiazole-2-oxide)-benzenesulfonamide] | 13.4 nM | – | 103% |
| O=S1NC(c2ccc(S(=O)(=O)N(CCC3CC3)c3sc4ccccc4c3Cl)cc2)=NO1 (stereo not drawn) [Compound 625, N-(3-Chloro-benzo[b]thiophen-2-yl)-N-(cyclopropyl-ethyl)-4-(3H-[1,2,3,5]oxathiadiazole-2-oxide)-benzenesulfonamide] | 20.4 nM | – | 103% |
| O=c1[nH]c(-c2ccc(S(=O)(=O)N(CCC3CC3)c3sc4ccccc4c3Br)cc2)no1 [Compound 626, N-(3-Bromo-benzo[b]thiophen-2-yl)-N-(cyclopropyl-ethyl)-4-(5-oxo-4,5-dihydro-[1,2,4]oxadiazol-3-yl)-benzenesulfonamide] | 7.4 nM | 103% | – |
| O=c1[nH]c(-c2ccc(S(=O)(=O)N(CCC3CC3)c3sc4ccccc4c3Cl)cc2)no1 [Compound 627, N-(3-Chloro-benzo[b]thiophen-2-yl)-N-(cyclopropyl-ethyl)-4-(5-oxo-4,5-dihydro-[1,2,4]oxadiazol-3-yl)-benzenesulfonamide] | 8.6 nM | 103% | – |
| COC(=O)c1ccc(S(=O)(=O)N(CCC2CC2)c2sc3ccccc3c2C)cc1 [Compound 628, N-(2-Cyclopropyl-ethyl)-N-(3-methyl-benzo[b]thiophen-2-yl)-4-carbomethoxy-benzenesulfonamide] | 23.3 nM | 103% | – |
| COC(=O)c1ccc(S(=O)(=O)N(CCC(F)(F)F)c2sc3ccccc3c2C)cc1 [Compound 629, N-(3-Methyl-benzo[b]thiophen-2-yl)-N-(3,3,3-trifluoro-propyl)-4-carbomethoxy-benzenesulfonamide] | 26.2 nM | 103% | – |
| COC(=O)c1ccc(S(=O)(=O)N(CCCC(F)(F)F)c2sc3ccccc3c2C)cc1 [Compound 630, N-(3-Methyl-benzo[b]thiophen-2-yl)-N-(4,4,4-trifluoro-butyl)-4-carbomethoxy-benzenesulfonamide] | 35.6 nM | 103% | – |

| Structure (SMILES) | IC50 | inhibition at 0.2 µM | % Inh @ 0.2 (μM) |
| --- | --- | --- | --- |
| COC(=O)c1ccc(S(=O)(=O)N(CCCCC(F)(F)F)c2sc3ccccc3c2C)cc1 [Compound 631, N-(3-Methyl-benzo[b]thiophen-2-yl)-N-(5,5,5-trifluoro-pentyl)-4-carbomethoxy-benzenesulfonamide] | 26.3 nM | 103% | – |
| CC1=C(N(CCC2CC2)S(=O)(=O)c2ccc(C(=O)O)cc2)S(=O)(=O)c2ccccc21 [Compound 632, N-(2-Cyclopropyl-ethyl)-N-(3-methyl-1,1-dioxo-benzo[b]thiophen-2-yl)-4-carboxy-benzenesulfonamide] | – | 12% | – |
| CC1=C(N(CCCCC(F)(F)F)S(=O)(=O)c2ccc(C(=O)O)cc2)S(=O)(=O)c2ccccc21 [Compound 633, N-(3-Methyl-1,1-dioxo-benzo[b]thiophen-2-yl)-N-(5,5,5-trifluoro-pentyl)-4-carboxy-benzenesulfonamide] | – | 17% | – |
| CC1=C(N(Cc2ccc(F)c(C(F)(F)F)c2)S(=O)(=O)c2ccc(C(=O)O)cc2)S(=O)(=O)c2ccccc21 [Compound 634, N-(4-Fluoro-3-trifluoromethyl-benzyl)-N-(3-methyl-1,1-dioxo-benzo[b]thiophen-2-yl)-4-carboxy-benzenesulfonamide] | – | 55% | – |
| O=S(=O)(c1ccc(-c2nnn[nH]2)cc1)N(CCC1CC1)c1sc2ccccc2c1Cl [Compound 635, N-(3-Chloro-benzo[b]thiophen-2-yl)-N-(2-cyclopropyl-ethyl)-4-(1H-tetrazol-5-yl)-benzenesulfonamide] | 7.4 nM | 101% | – |
| O=S(=O)(c1ccc(-c2nnn[nH]2)cc1)N(CCC(F)(F)F)c1sc2ccccc2c1Cl [Compound 636, N-(3-Chloro-benzo[b]thiophen-2-yl)-N-(3,3,3-trifluoro-propyl)-4-(1H-tetrazol-5-yl)-benzenesulfonamide] | 46 nM | 103% | – |
| Cc1c(N(CCC(F)(F)F)S(=O)(=O)c2ccc(-c3nsc(=O)[nH]3)cc2)sc2ccccc12 [Compound 637, N-(3-Methyl-benzo[b]thiophen-2-yl)-N-(3,3,3-trifluoro-propyl)-4-(5-oxo-4,5-dihydro-[1,2,4]thiadiazol-3-yl)-benzenesulfonamide] | 12.2 nM | 104% | – |
| O=C(O)c1ccc(S(=O)(=O)N(CCC2CC2)c2cc3ccccc3s2)c(F)c1 [Compound 638, N-(3-Benzo[b]thiophen-2-yl)-N-(2-cyclopropyl-ethyl)-2-fluoro-4-carboxy-benzenesulfonamide] | 60 nM | – | 100% |
| O=C(O)c1ccc(S(=O)(=O)N(CCC(F)(F)F)c2cc3ccccc3s2)c(F)c1 [Compound 639, N-(3-Benzo[b]thiophen-2-yl)-N-(3,3,3-trifluoro-propyl)-2-fluoro-4-carboxy-benzenesulfonamide] | 128 nM | – | 84% |
| Cc1c(N(CCCCC(F)(F)F)S(=O)(=O)c2ccc(-c3nsc(=O)[nH]3)cc2)sc2ccccc12 [Compound 640, N-(3-Methyl-benzo[b]thiophen-2-yl)-N-(5,5,5-trifluoro-pentyl)-4-(5-oxo-4,5-dihydro-[1,2,4]thiadiazol-3-yl)-benzenesulfonamide] | 11 nM | 103% | – |
| Cc1c(N(CCC2CC2)S(=O)(=O)c2ccc(-c3nsc(=O)[nH]3)cc2)sc2ccccc12 [Compound 641, N-(3-Methyl-benzo[b]thiophen-2-yl)-N-(cyclopropyl-ethyl)-4-(5-oxo-4,5-dihydro-[1,2,4]thiadiazol-3-yl)-benzenesulfonamide] | 14 nM | 103% | – |
| O=c1[nH]c(-c2ccc(S(=O)(=O)N(CCC3CC3)c3cc4ccccc4s3)cc2)ns1 [Compound 642, N-(Benzo[b]thiophen-2-yl)-N-(cyclopropyl-ethyl)-4-(5-oxo-4,5-dihydro-[1,2,4]thiadiazol-3-yl)-benzenesulfonamide] | 41 nM | 90% | – |
| CN(C)C1=C(N(CCC2CC2)S(=O)(=O)c2ccccc2)S(=O)(=O)c2ccccc21 [Compound 643, N-(2-Cyclopropylethyl)-N-(3-dimethylamino-1,1-dioxo-1H-benzo[b]thiophen-2-yl)-benzenesulfonamide] | 5 nM | 103% | – |
| CNC1=C(N(CCC2CC2)S(=O)(=O)c2ccccc2)S(=O)(=O)c2ccccc21 [Compound 644, N-(2-Cyclopropylethyl)-N-(3-methylamino-1,1-dioxo-1H-benzo[b]thiophen-2-yl)-benzenesulfonamide] | – | 63% | – |
| CN1CCN(C2=C(N(CCC3CC3)S(=O)(=O)c3ccccc3)S(=O)(=O)c3ccccc32)CC1 [Compound 645, N-(2-Cyclopropyl-ethyl)-N-[3-(4-methyl-piperazin-1-yl)-1,1-dioxo-1H-1λ^6-benzo[b]thiophen-2-yl]-benzenesulfonamide] | – | 20% | – |
